Biological target: T1, Or22a (Drosophila melanogaster, UniProt P81909)
T1 construct: his-tag; made in house; host or cells: baculovirus-infected Sf9 cells
T1 sequence (P81909 1-397): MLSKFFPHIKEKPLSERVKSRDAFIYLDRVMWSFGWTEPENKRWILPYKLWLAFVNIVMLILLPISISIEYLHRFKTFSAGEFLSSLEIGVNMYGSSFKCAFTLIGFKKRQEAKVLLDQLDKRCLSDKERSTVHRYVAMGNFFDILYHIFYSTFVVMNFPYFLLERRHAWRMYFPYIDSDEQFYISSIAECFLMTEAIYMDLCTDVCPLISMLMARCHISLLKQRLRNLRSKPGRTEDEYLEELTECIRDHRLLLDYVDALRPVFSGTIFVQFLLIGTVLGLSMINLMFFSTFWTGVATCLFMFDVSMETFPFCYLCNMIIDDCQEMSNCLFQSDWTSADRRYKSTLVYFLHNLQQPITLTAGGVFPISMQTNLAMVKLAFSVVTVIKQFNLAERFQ
Test: GFET sensor, Or22a liposomes
Format: biochemical
Details: Table 4, GFET
From the text: The GFETs used in this study were fabricated from a predeposited graphene film on 300 nm SiO2 coated Si substrate from ACS Suppliers, USA. The FETs consist of a channel with dimensions of 100 μm width and […]. The key steps involved in fabricating the GFET on a Si/SiO2 substrate is schematically illustrated in FIG. 12. The source and drain electrodes were defined by photolithography and formed by successive deposition of Cr and Au. Both the drain and source electrodes were then encapsulated using AZ1518 photoresist and a channel with dimensions of 100 μm width and 10 μm length was left open to the environment for gating and functionalisation.
The OR liposomes were functionalised onto the graphene surface via a non-covalent route using PBASE as the molecular linker as shown in FIG. 13. The OR liposomes were diluted at 1:10 ratio with 1×PBS (pH7.4). The cleaned GFETs were immersed in 1 mM PBASE solution in methanol for 1 hour. […]
Electrical sensor measurements of OR liposome functionalised GFETs were carried out using top liquid gate morphology as shown in the schematic in FIG. 15 (a). […] The transfer characteristics of the different graphene FETs (FIG. 15 (b) to (g)) were measured at Vds=1 mV while the liquid gate voltage Vlg was swept from −0.5 V to 1 V with an interval of 20 mV. […]

With `CCCCCC(=O)OC` [methyl hexanoate] the “Detection Range” value was 10^−12 to 10^−8 M and the EC50 was 12.1 pM.

From patent US20210255184A1, “Biosensor Device and Methods” (The New Zealand Institute for Plant and Food Research …, priority 2018, published 2021)
